“Also recorded” adds a separate entry of the source.
Test system: cisplatin-induced nephropathy in mice
Assay: Cisplatin-induced nephropathy mouse model (anaemia and renal function)
Assay type: in vivo
Protocol: Forty six-to-seven-week-old C57Bl/6J male mice were i.p. injected with three doses of cisplatin (Sigma-Aldrich), following the scheme of 7, 6, and 6 mg·kg-1 body weight, at 4 to 5 day intervals, and the normal group (n=4) was injected with saline (FIG. 1 scheme). On day 12, the collected serum samples were assayed for the urea nitrogen content (BUN). Mice with BUN values greater than 80 mg·dL-1 were chosen for the experiment. An average seventy percent of injected mice were successful induced renal dysfunction, and the ineffective mice were excluded from the EH202 treating experiments. The mice were subsequently divided randomly into 4 cohorts comprising the control (Ctrl, n=6) and three EH202-treated groups (n=5 to 6 for each group) for an additional 2 weeks. Blood samples from all the mice were collected every 5 days. The RBC numbers were determined from the complete blood cell count using a Sysmex Kx-21 haematology analyser (Sysmex America), and the serum BUN and creatinine levels were determined using a commercial kit (Randox Laboratories Ltd. United Kingdom). All results are expressed as the mean±SEM. The statistical analysis was performed using Student's t-test. One-way ANOVA was used to examine the differences across the animal experimental groups. The posthoc differences between the means of the experimental groups were determined via Tukey's test. P<0.05 was considered significant.

In the case of `OC[C@H]1OC(Oc2c(/C=C/c3ccc(F)cc3)ccc3ccccc23)[C@H](O)[C@@H](O)[C@@H]1O` (stereo partly drawn) [EH202, (Naphthanol-4′fluoro-stilbenzene)-1-O-β-D-glycoside], the BUN levels (10, 30 and 90 mg·kg-1 treatment groups, day 29, FIG. 2C) is reported as “accelerates the recovery from renal dysfunction; also recorded: significantly recovered”, the “recovery of anaemia (HGB level, RBC numbers)” value (30 and 90 mg·kg-1, FIGS. 2D and 2E) is reported as “increasing recovery of anaemia” and the “recovery of renal dysfunction (creatinine level in the peripheral blood)” value (30 and 90 mg·kg-1 for 10 days, day 24, FIG. 2B) is reported as “accelerates the recovery from renal dysfunction; also recorded: almost complete recovery of renal dysfunction”. For the same compound, the “recovery from anemia, hemoglobin (HGB) level in the peripheral blood” value (day 24, FIG. 2D) was “accelerates the recovery from anemia” and the “recovery from anemia, RBC numbers in the peripheral blood” value (day 29, FIG. 2E) was “accelerates the recovery from anemia”.
